# Laboratory results taken from patent US7462478B2, “Polynucleotide encoding 2-hydroxyisoflavanone dehydratase and application of the same” (Nihon University, priority 2003, dated 2008).
# Values joined by “and” are separate entries in the source; they are usually repeats but may differ in a detail not shown here. Equal values may be shown once.
# Tests used:
# [1] = system: 2-hydroxyisoflavanone dehydratase in cell-free extract of soybean seedling; experiment: 2-hydroxyisoflavanone dehydratase assay, soybean crude extract; type: biochemical, Glycine max; conditions: for Specific activity, Soybean Crude extract: rate of isoflavone production, 30° C., 10 minutes, mean ± SD of three experiments
# Procedure: (§1) All procedures were carried out at 4° C. Licorice cells (10 g) after elicitor treatment (for 24 hours) or 1-week old soybean raised from seeds (10 g) were homogenized in a mortar with 10 ml of a 100-mM potassium phosphate buffer (pH 7.5) containing 10% sucrose and 14 mM of 2-mercaptoethanol and with sea sand (2.5 g). The resulting homogenate was filtered through gauze and then centrifuged at 10,000×g for 10 minutes. Supernatant was mixed with 2.5 g of Dowex 1-X2 (equilibrated with a 100-mM potassium phosphate buffer), followed by standing for 20 minutes. The solution obtained from the filtration was fractionated with ammonium sulfate and a 30-80% saturated fraction was then demineralized through a Sephadex G-25 column and dissolved in a 100-mM potassium phosphate buffer (pH 7.5) containing 10% sucrose and 14-mM 2-mercaptoethanol, followed by being used in the assay (approximately 600 μg/ml of protein).
# (§2) An enzyme preparation was added to 2,7,4′-trihydroxyisoflavanone, 2,7-dihydroxy-4′-methoxyisoflavanone, or 2,5,7,4′-tetrahydroxyisoflavanone (5 nmol each) in 2-methoxyethanol so as to be in a total volume of 100 μl, and then the whole was incubated at 30° C. for 10 minutes.
# (§3) A concentrated ethyl acetate extract was incubated with recombinant licorice HIDM (1 μg) at 30° C. for 10 minutes. An ethyl acetate extract from the mixture was analyzed by high-performance liquid chromatography (HPLC). The HPLC for both daidzein and formononetin analysis was carried out using a Capcell pak C18 MG column (4.6×150 mm; Shiseido Co., Ltd.) at 40° C. (flow volume=0.8 ml/min) (Non-Patent Document 12) with a linear gradient elution for 40 minutes from 35% to 55% methanol in 3% aqueous acetic acid. 5-Hydroxyisoflavones were analyzed using a Capcell pak C18MG column (4.6×150 mm; Shiseido Co., Ltd.) with a 50% methanol aqueous solution (for genistein) or a 55% methanol aqueous solution (for biochanin A) at 40° C. (flow rate=0.8 ml/min).
# (§4) The purified recombinant protein (approximately 10 ng of protein) and cell-free extracts of licorice and soybean (approximately 10 μg of protein) were used to determine their specific activity. The concentration of isoflavone was calculated from the HPL peak area of the standard sample of each of daidzein, formononetin, and genistein.
# [2] = target: T1, recombinant soybean HIDH (2-hydroxyisoflavanone dehydratase) (Glycine max, UniProt Q5NUF3); experiment: 2-hydroxyisoflavanone dehydratase assay, recombinant soybean HIDH; type: biochemical; conditions: for Specific activity, Soybean Recombinant protein: purified recombinant protein, rate of isoflavone production, mean ± SD of three experiments
# T1 construct: the NdeI-BamHI fragment of soybean cDNA (HIDH) was also subcloned into the corresponding sites of the pET28a; made in house; host or cells: E. coli BL21 (DE3), vector pET28a, purified with HisTrap Kit
# T1 sequence (Q5NUF3 1-319): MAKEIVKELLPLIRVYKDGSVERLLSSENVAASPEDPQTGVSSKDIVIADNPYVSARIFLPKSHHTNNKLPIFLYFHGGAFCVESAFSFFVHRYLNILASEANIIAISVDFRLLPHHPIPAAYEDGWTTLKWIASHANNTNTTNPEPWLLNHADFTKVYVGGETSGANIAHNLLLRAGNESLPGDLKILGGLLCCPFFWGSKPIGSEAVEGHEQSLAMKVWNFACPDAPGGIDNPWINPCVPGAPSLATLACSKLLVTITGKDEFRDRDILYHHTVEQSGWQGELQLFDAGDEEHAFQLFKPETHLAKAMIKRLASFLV
# Procedure: as §2, §3, §4
# (§5) The NdeI-BamHI fragment of the PCR product from licorice HIDM was cloned into the corresponding sites of pET28a (Novagen Ltd.). In addition, the NdeI-BamHI fragment of soybean cDNA (HIDH) was also subcloned into the corresponding sites of the pET28a. The expression and purification of recombinant 2-hydroxyisoflavanone dehydratases were carried out by the following procedures (Non-Patent Document 12). The E. coli BL21 (DE3) cells transformed with the vector containing HIDM or HIDH were incubated up to OD600=0.4 in a LB/ampicillin medium supplemented with 20 ml of 50 μg/ml kanamycin or ampicillin at 30° C. IPTG was added to the culture so as to be a final concentration of 1.0 mM and the whole was incubated at 30° C. for six hours. The licorice HIDM and soybean HIDH were purified from the crude extracts of HIDM and HIDH-expression E. coli using HisTrap Kit (Amersham Biosciences Corporation), respectively.
# [3] = target: T2, recombinant licorice HIDM (2-hydroxyisoflavanone dehydratase) (Glycyrrhiza echinata, UniProt Q5NUF4); experiment: 2-hydroxyisoflavanone dehydratase assay, recombinant licorice HIDM; type: biochemical; conditions: for Specific activity, Licorice Recombinant protein: purified recombinant protein, rate of isoflavone production, mean ± SD of three experiments
# T2 construct: The NdeI-BamHI fragment of the PCR product from licorice HIDM was cloned into the corresponding sites of pET28a; made in house; host or cells: E. coli BL21 (DE3), vector pET28a, purified with HisTrap Kit
# T2 sequence (Q5NUF4 1-328): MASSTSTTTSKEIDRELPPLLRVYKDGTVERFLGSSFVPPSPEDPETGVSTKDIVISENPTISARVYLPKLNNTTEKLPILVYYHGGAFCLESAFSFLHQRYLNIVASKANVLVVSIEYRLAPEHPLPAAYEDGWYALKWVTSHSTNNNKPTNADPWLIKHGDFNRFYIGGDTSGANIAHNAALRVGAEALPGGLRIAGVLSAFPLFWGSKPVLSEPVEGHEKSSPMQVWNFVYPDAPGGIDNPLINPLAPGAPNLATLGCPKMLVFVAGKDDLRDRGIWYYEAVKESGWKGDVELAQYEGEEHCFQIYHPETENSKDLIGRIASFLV
# Procedure: as §2
# The assay of 2,5,7-trihydroxy-4′-methoxyisoflavanone dehyderatase (biochanin A synthetase) was carried out as follows. 2,5,7,4′-tetrahydroxyisoflavanone (10 nmol) dissolved in 2-methoxyethanol was incubated together with licorice HI4′OMT (1 μg) and 1 μmol of S-adenosyl-L-methionine (SAM) at 30° C. for 15 minutes.
# as §3, §4, §5
# [4] = system: Carboxylesterase from pig liver; experiment: 2-hydroxyisoflavanone dehydratase assay, carboxylesterase from pig liver; type: biochemical
# Procedure: as §2
# as §3, with “(flow volume=0.8 ml/min) (Non-Patent Document 12) with a linear gradient elution for 40 minutes from 35% to 55% methanol in 3% aqueous acetic acid.” left out, “(flow rate=0.8 ml/min).” left out
# The specific carboxylesterase activities of recombinant licorice HIDM and soybean HIDH proteins were calculated from the generation rate of p-nitrophenol measured at 30° C. by an absorbance at 400 nm in 1.5 ml of a 50-mM Tris-HCl buffer containing 150 mM of NaCl and 750 nmol of p-nitrophenyl butyrate (Heymann 1981). […] Thermally-denatured (100° C., 10 minutes) licorice HIDM, soybean HIDH, and pig liver carboxylesterase protein were analyzed as negative controls, respectively.
# [5] = system: 2-hydroxyisoflavanone dehydratase of P. lobata; conditions: Hakamatsuka et al., 1998; cited from earlier work
# [6] = target: T3, 2-hydroxyisoflavanone dehydratase in cell-free extract of licorice cells (strain AK-1) (Glycyrrhiza echinata, UniProt Q5NUF4); experiment: 2-hydroxyisoflavanone dehydratase assay, licorice crude extract; type: biochemical; conditions: for Specific activity, Licorice Crude extract: rate of isoflavone production, 30° C., 10 minutes, mean ± SD of three experiments
# T3 construct: Licorice cells (10 g) after elicitor treatment (for 24 hours) or 1-week old soybean raised from seeds (10 g) were homogenized; endogenous in cells; host or cells: elicitor-treated licorice cultured cells (strain AK-1); 30-80% ammonium sulfate fraction of the cell-free extract
# T3 sequence (Q5NUF4 1-328): T2 sequence (Q5NUF4 1-328)
# Procedure: as §1, §2
# as §3, with “(flow volume=0.8 ml/min) (Non-Patent Document 12) with a linear gradient elution for 40 minutes from 35% to 55% methanol in 3% aqueous acetic acid.” left out, “(flow rate=0.8 ml/min).” left out
# as §4
# [7] = system: Carboxylesterase from pig liver; experiment: Carboxylesterase activity of pig liver carboxylesterase (positive control); type: biochemical; conditions: rate of p-nitrophenol production, 30° C., absorbance at 400 nm
# Procedure: (§6) The specific carboxylesterase activities of recombinant licorice HIDM and soybean HIDH proteins were calculated from the generation rate of p-nitrophenol measured at 30° C. by an absorbance at 400 nm in 1.5 ml of a 50-mM Tris-HCl buffer containing 150 mM of NaCl and 750 nmol of p-nitrophenyl butyrate (Heymann 1981). Commercially-available pig liver carboxylesterase (Sigma Corporation) was used as a positive control. Thermally-denatured (100° C., 10 minutes) licorice HIDM, soybean HIDH, and pig liver carboxylesterase protein were analyzed as negative controls, respectively.
# [8] = target: T4, recombinant soybean HIDH (Glycine max, UniProt Q5NUF3); experiment: Carboxylesterase activity of recombinant soybean HIDH; type: biochemical
# T4 construct: the NdeI-BamHI fragment of soybean cDNA (HIDH) was also subcloned into the corresponding sites of the pET28a; made in house; host or cells: E. coli BL21 (DE3), vector pET28a, purified with HisTrap Kit
# T4 sequence (Q5NUF3 1-319): T1 sequence (Q5NUF3 1-319)
# Procedure: as §6
# [9] = target: T5, recombinant licorice HIDM (Glycyrrhiza echinata, UniProt Q5NUF4); experiment: Carboxylesterase activity of recombinant licorice HIDM; type: biochemical
# T5 construct: The NdeI-BamHI fragment of the PCR product from licorice HIDM was cloned into the corresponding sites of pET28a; made in house; host or cells: E. coli BL21 (DE3), vector pET28a, purified with HisTrap Kit
# T5 sequence (Q5NUF4 1-328): T2 sequence (Q5NUF4 1-328)
# Procedure: as §6
# [10] = rate of p-nitrophenol production, 30° C., absorbance at 400 nm
smiles,measurement,setting,value
"O=C1c2c(O)cc(O)cc2OC(O)C1c1ccc(O)cc1 (stereo not drawn) [2,5,7,4′-tetrahydroxyisoflavanone]","Specific activity, Soybean Crude extract",[1],19.6 ± 3 pkatal/mg
same,"Production of genistein, level with respect to the production of daidzein",[1]; soybean extract,approximately 1/10
same,"Specific activity, Soybean Recombinant protein",[2],3.55 ± 0.6 nkatal/mg
same,Product formation by soybean HIDH (HPLC),[2]; recombinant soybean HIDH,catalyzed the production of genisein
"COc1ccc(C2C(=O)c3c(O)cc(O)cc3OC2O)cc1 (stereo not drawn) [2,5,7-trihydroxy-4′-methoxyisoflavanone]",Product detected by HPLC after incubation with licorice HIDM,"[3]; substrate made with HI4′OMT and SAM, HIDM 1 μg, 30° C., 10 minutes",biochanin A was detected
"O=C1c2ccc(O)cc2OC(O)C1c1ccc(O)cc1 (stereo not drawn) [2,7,4′-trihydroxyisoflavanone]",Dehydration by carboxylesterase from pig liver,[4],did not dehydrate
same,"Specific activity, Carboxylesterase from pig liver (dehydration)",[4]; rate of isoflavone production,0 nkatal/mg
same,Specific activity of dehydratase of P. lobata,[5],56.8 mkatal/kg protein
same,"Specific activity, Soybean Crude extract",[1],197.3 ± 15 pkatal/mg
same,"Activity (daidzein production), times as small as the production of formononetin","[6]; licorice extract, versus 2,7-dihydroxy-4′-methoxyisoflavanone",approximately 160 times
same,"Specific activity, Licorice Crude extract",[6],0.8 ± 0.03 pkatal/mg
same,"Specific activity, Soybean Recombinant protein",[2],43.6 nkatal/mg and 43.6 ± 4 nkatal/mg
same,"Specific activity, Licorice Recombinant protein",[3],0.70 ± 0.08 nkatal/mg
"COc1ccc(C2C(=O)c3ccc(O)cc3OC2O)cc1 (stereo not drawn) [2,7-dihydroxy-4′-methoxyisoflavanone]","Specific activity, Soybean Crude extract",[1],97.4 ± 10 pkatal/mg
same,"Specific activity, Licorice Crude extract",[6],123.0 ± 8 pkatal/mg
same,"Specific activity, Soybean Recombinant protein",[2],0.90 ± 0.1 nkatal/mg
same,"Specific activity, Licorice Recombinant protein",[3],52.1 ± 1.5 nkatal/mg
same,"Specific activity of licorice HIDM, times as high as to 2,7,4′-trihydroxyisoflavanone",[3]; recombinant licorice HIDM,74 times
CCCC(=O)Oc1ccc([N+](=O)[O-])cc1 [p-nitrophenyl butyrate],"Specific carboxylesterase activity, Carboxylesterase from pig liver",[7],425 ± 7 (f) nkatal/mg
same,Carboxylesterase activity of recombinant soybean dehydratase,[8],weak activity
same,Carboxylesterase activity of soybean HIDH as fraction of the pig liver enzyme,[8],approximately 1/50
same,"Specific carboxylesterase activity, Soybean Recombinant protein",[8]; [10],7.20 ± 0.4 (f) nkatal/mg
same,Carboxylesterase activity of recombinant licorice dehydratase,[9],weak activity
same,"Specific carboxylesterase activity, Licorice Recombinant protein",[9]; [10],0.32 ± 0.07 (f) nkatal/mg
